Data published in article PMC10931745 (International Journal of Molecular Sciences, 2024).

System: ROS production in BALB/3T3 fibroblasts
Assay: Intracellular ROS detection with DCFH2-DA
Type: cell-based, murine
Conditions: 25 µM, 24 h pre-treatment
Procedure: In vitro detection of intracellular ROS on fibroblasts BALB/3T3 using DCFH2-DA The assay to evaluate the in vitro antioxidant activity was carried out using the murine BALB/3T3 fibroblasts that were plated in a white 96 MW and then treated with the complexes at a concentration of 25 µM for 24 h. Menadione (25 µM) was then added for 15 min to induce ROS production. After treatment, the cells were washed with PBS and treated with 25 μM 2′-7′-dichlorofluorescein diacetate (DCFH2-DA, Sigma-Aldrich, St. Louis, MO, USA), and then they were incubated for 40 min at 37 °C and 5% CO2. The probe DCFH2-DA penetrates cells where it is […] into a non-fluorescent form (DCFH2) by endogenous esterases. In the presence of intracellular ROS, non-fluorescent H2DCF is oxidized to the fluorescent 2′,7′-dichlorofluorescein (DCF). Then, the cells were washed with PBS and the fluorescence was detected using a multiplate reader (λex = 485 nm, λem = 535 nm). Based on the obtained fluorescence values, the ROS production inhibition % (IROS) vs. menadione was calculated using the following formula:(1) IROS vs. Menadione (%)=FMen−FSample/FMen∗100 where FMen represents the mean fluorescence obtained after treatment with menadione alone and Fsample represents the mean fluorescence obtained after the co-treatment with the complexes and menadione.

| Compound | ROS level reduction vs. menadione |
| --- | --- |
| Cn1c(=O)c2c(n(C)[c]([Au-][I])[n+]2CC(O)c2ccccc2)n(C)c1=O (racemic) [AuL1, 1,3,7-Trimethylxanthin-9-[(2-hydroxy-2-phenyl)ethyl-8-ylidene]Au(I) Iodide] | approximately 69% |
| CC(=O)[O][Ag-][c]1n(C)c2c(c(=O)n(C)c(=O)n2C)[n+]1C1CCCCC1O (centres unmarked) [AgL2OAc, 1,3,7-Trimethylxanthin-9-[cyclohexan-2-ol-8-ylidene]Ag(I) Acetate] | ~59% |
